The values that follow are results of earlier work, collected in patent US8673356B2, “Stable fixed dose topical formulation” (Glenmark Pharmaceuticals Limited, priority 2008, dated 2014).

The conditions of series [1]: converted in vivo by hydrolysis to active clindamycin.

`CCC[C@@H]1C[C@@H](C(=O)NC(C2O[C@H](SC)[C@H](OP(=O)(O)O)[C@@H](O)[C@H]2O)[C@H](C)Cl)N(C)C1` (stereo partly drawn) [Clindamycin phosphate, methyl 7-chloro-6,7,8-trideoxy-6-(1-methyl-trans-4-propyl-L-2-pyrrolidinecarboxamido)-1-thio-L-threo-D-galactooctopyranoside 2-(dihydrogen phosphate)]: the Solubility in water result was “water soluble”. The Activity in vitro entry in series [1] was “inactive”.

With `COc1ccc(-c2ccc3cc(C(=O)O)ccc3c2)cc1C12CC3CC(CC(C3)C1)C2` [Adapalene, 6-[3-(1-adamantyl)-4-methoxyphenyl]-2-naphthoic acid], the Solubility in water result is on record as “practically insoluble”. Besides, for the setting “ethanol”, the Solubility in ethanol entry was “very slightly soluble”. For the same molecule, the Solubility in tetrahydrofuran result (tetrahydrofuran) is given as “soluble”.
